The data set can be described thus: Miscibility of insecticide in gel formulation. The class given is physicochemical. From the text:
Thus, the improved gel formulation allows permeation of an effective amount of the active ingredient to occur in about 3 days, as compared to about 3 to 5 weeks for prior formulations. As a result of this shortened initial permeation period, the device is ready for use more quickly after manufacture, thereby reducing or eliminating the amount of time that such devices must be stored prior to use. Additional advantages of the device of the present invention include eliminating several of the problems associated with the use of a mineral oil-based gel, such as leaving an oily residue on the animal, the potential for triggering skin irritations, and inhibiting the process of sealing the reservoir. In addition, insecticides such as cypermethrin which are not miscible in mineral oil-based gels are miscible in the improved gel formulation of the present invention.

Structures are written as SMILES.

The values that follow come from patent US6835386B2, “Collar containing a novel gel formulation to control arthropod infestation of animals” (Pfizer Inc., priority 1998, dated 2004).

Turning to `CC1(C)C(C=C(Cl)Cl)C1C(=O)OC(C#N)c1cccc(Oc2ccccc2)c1` (centres unmarked) [cypermethrin], the Miscibility result runs as follows: (in mineral oil-based gels) “not miscible”; (in the improved gel formulation of the present invention) “miscible”.
